From patent publication US8415334B2, “Method of combating infection” (Morvus Technology Ltd., priority 2005, dated 2013)
“And” between values parts separate entries of the source, which are not always exact repeats. Identical values can stand only once. Like-named read-outs stand apart in the source and are kept apart here.

Key:
T. cruzi (tulahuen CL2) = assay: microbe, parasite or virus in culture; details: Trypanosoma cruzi, L6, read-out: T. cruzi (tulahuen CL2) IC50
Description: The Trypanosoma cruzi (MHOM/CL/00/Tulahuen) transfected with β-galactosidase (Lac Z) gene, was used (Buckner et al (1996) Antimicrobial Agents and Chemotherapy 40(11), 2592-2597. The strain was maintained on an L-6 (rat skeletal myoblast cell line obtained from European Collection of Animal Cell Cultures (ECACC, Salisbury, UK)) cell-layer in RPMI 1640 w/o phenol red medium supplemented with 10% heat inactivated fetal calf serum. All cultures and assays were conducted at 37° C. under an atmosphere of 5% CO2 in air.
For the assays, the compound was further diluted to the appropriate concentration using complete medium.
Assays were performed in sterile 96-well microliter plates, each well containing 100 μl medium with 2×10^3 L-6 cells. After 24 hours 50 μl of a trypanosome suspension containing 5×10^3 trypomastigote bloodstream forms from culture was added to the wells. 48 hours later the medium was removed from the wells and replaced by 100 μl fresh medium with or without a serial drug dilution. […] Nifurtimox was used as the reference drug.
The compounds were tested in triplicate at 4 concentrations (30-10-3-1 μg/ml). Nifurtimox was included as the reference drug.
The same protocol was used and the IC50s determined using an extended dose range adjusted as appropriate.

P. falciparum (Ghana) = assay: Integrated in vitro screening, P. falciparum (Ghana); type: cell-based; details: Plasmodium falciparum; for IC50: read-out: P. falciparum (Ghana), IC50
T. b. brucei = assay: Integrated in vitro screening, T. b. brucei; type: cell-based; details: Trypanosoma brucei, read-out: T. b. brucei, IC50
T cruzi [1] = assay: In vivo activity against T. cruzi in BALB/c mice (blood parasites, survival); parameters: species or system Trypanosoma cruzi; details: for # of type of field (blood parasites per fields): 0.3 mg/kg i.p. x5, individual mice
Description: At a dose of 0.3 mg/kg (IP×5, daily) all the mice survived for the 50 days before the experiment was terminated.

[2] = mouse, in vivo
Description: (§1) The infection and treatment of the animals was performed as described by Croft and Yardley and references there in (Croft & Yardley (1999) Animal models of visceral leishmaniasis. In Handbook of Animal Models of Infection, Zak, O. (ed) pp 783-787, Academic Press, London). […] The liver was removed from freshly sacrificed animals and weighed. Smears were then prepared from the livers on microscope slides and fixed with methanol and stained with Giemsa stain. The number of parasites per 500 liver cells was determined microscopically for each experimental animal. This figure is multiplied by total liver weight (mg) and this figure (the Leishman-Donovan unit (LDU)) is used as the basis for calculating the difference in parasite load between treated and untreated animals (Croft & Yardley, 1999 supra).
(§2) Stibogluconate at its MTD (15 mg/kg×5 SC) was used as the control compound for these experiments.

[3] = Cytotoxicity assays against a range of human cell lines; type: cell-based; details: range of human cell lines (not named)
T cruzi [4] = assay: In vivo activity against T. cruzi in BALB/c mice (blood parasites, survival); parameters: species or system Trypanosoma cruzi; details: for # of type of field (blood parasites per fields): individual mice
T. colubriformis = assay: Integrated in vitro screening, T. colubriformis; type: cell-based; details: for IC50: Trichostrongylus colubriformis, read-out: T. colubriformis, IC50
L. donovani HU3 = assay: In vivo activity against L. donovani HU3 in mice (liver parasite load, LDU); parameters: species or system Leishmania donovani; details: for ED50: Leishmania donovani
Description: as §1, §2

L. infantum = assay: In vitro screening, Leishmania in mouse peritoneal macrophages; type: cell-based; details: Peritoneal macrophage
Description: One strain of Leishmania spp. (Leishmania donovani MHOM/ET/67/L82, also known as LV9,HU3) was used. The strain is maintained in the Syrian Hamster (Mesocricetus auratus). Amastigotes were collected from the spleen of an infected hamster and spleen parasite burden was assessed using the Stauber technique.
Primary peritoneal mouse (CD1) macrophages were collected 1 or 2 days after a macrophage production stimulation with an i.p. injection of 2 ml 2% soluble starch. All cultures and assays were conducted at 37° C. under an atmosphere of 5% CO2.
The stock was pre-diluted to 60 μg/ml in RPMI 1640+10% heat inactivated fetal calf serum. Assays were performed in sterile 16-well tissue culture slides, each well containing 50 μl of the compound dilutions together with 100 μl of macrophage/parasite inoculum (4×10^5 macrophages/ml and 4×10^6 parasites/ml). The inoculum was prepared in RPMI-1640 medium, supplemented with 10% heat inactivated fetal calf serum. […] After 5 days of incubation, parasite growth was microscopically assessed after staining the cells with a 10% Giemsa solution. The level of infection/well was evaluated by counting the number of infected macrophages per 100 macrophages. The results expressed as % reduction in parasite burden compared to control wells, were transferred into a graphic programme (EXCEL), sigmoidal inhibitions curves determined and IC50 values calculated. […]

CC1CS(=O)(=O)CCN1/N=C/c1ccc([N+](=O)[O-])o1 (centres unmarked) [Nifurtimox]
IC50 (T. cruzi (tulahuen CL2)): 450 nM

CCN(CC)CCCC(C)Nc1ccnc2cc(Cl)ccc12 (centres unmarked) [Chloroquine]
IC50 (P. falciparum (Ghana)): 18 nM

Cc1ccc(C(=O)Nc2ccc(S(=O)(=O)O)c3cc(S(=O)(=O)O)cc(S(=O)(=O)O)c23)cc1NC(=O)c1cccc(NC(=O)Nc2cccc(C(=O)Nc3cc(C(=O)Nc4ccc(S(=O)(=O)O)c5cc(S(=O)(=O)O)cc(S(=O)(=O)O)c45)ccc3C)c2)c1 [Suramin]
IC50 (T. b. brucei): 45 nM

NC(=O)c1cc(N2CC2)c([N+](=O)[O-])cc1[N+](=O)[O-] [Tretazicar, 5-(aziridin-1-yl)-2,4-dinitrobenzamide]
survival of infected mice (T cruzi [1]; 0.3 mg/kg (IP×5, daily), BALB/c mice, experiment terminated at 50 days): ≥ 50 days
parasites in the blood (T cruzi [1]; 0.3 mg/kg (IP×5, daily), at 13 days): parasites could still be detected in the blood
# of type of field (blood parasites per fields) (T cruzi [1]; day 6 post infection): 2/20 and 0/20 (4×)
# of type of field (blood parasites per fields) (T cruzi [1]; day 13 post infection): 16/5 and 2/5 (2×) and 7/5 and 6/5
IC50 (T. b. brucei; in vitro): 5000 nM
drug related toxicity, as measured by body weight loss [2]: No drug related toxicity
dose at which significant toxicity was observed ([2]; 5 days): 10 mg/kg×5
IC50 [3]: > 50000 nM
IC50 (T. cruzi (tulahuen CL2)): 3 nM
# of type of field (blood parasites per fields) (T cruzi [4]; 1 mg/kg i.p. x5, day 6 post infection): 0/20 (3×) and 1/20 (2×)
# of type of field (blood parasites per fields) (T cruzi [4]; 1 mg/kg i.p. x5, day 13 post infection): 0/10 (2×) and 3/10
parasites in the blood (T cruzi [4]; 3.0 mg/kg (IP×5, daily)): cleared all the parasites from the blood
# of type of field (blood parasites per fields) (T cruzi [4]; 3 mg/kg i.p. x5, day 6 post infection): 5/20 and 12/20 and 4/20 and 1/20 (2×)
# of type of field (blood parasites per fields) (T cruzi [4]; 3 mg/kg i.p. x5, day 13 post infection): 0/10
# of type of field (blood parasites per fields) (T cruzi [4]; 10 mg/kg i.p. x5, day 6 post infection): 0/20 (3×) and 1/20 and 2/20
# of type of field (blood parasites per fields) (T cruzi [4]; 10 mg/kg i.p. x5, day 13 post infection): 0/10
activity against tested strains (T. colubriformis; T. colubriformis, in words): No activity
IC50 (T. colubriformis; in vitro): > 32000 nM
ED90 (L. donovani HU3; BALB/c mice, IP × 5 Daily): 1.41 mg/kg
ED90 (L. donovani HU3; BALB/c mice, IV × 3 Daily): 1.15 mg/kg
ED50 (L. donovani HU3; ip, BALB/c mice, IP × 5 Daily): 0.23 mg/kg
ED50 (L. donovani HU3; iv, BALB/c mice, IV × 3 Daily): 0.19 mg/kg
ED50 (L. donovani HU3; iv, SCID mice, IV × 5 Daily): 0.18 mg/kg
ED90 (L. donovani HU3; SCID mice, IV × 5 Daily): 0.35 mg/kg
IC50 (L. infantum): 80 nM
activity against tested strains (P. falciparum (Ghana); in words): No activity
IC50 (P. falciparum (Ghana); in vitro): > 32000 nM

CCCSc1ccc2nc(NC(=O)OC)[nH]c2c1 [Albendazole]
IC50 (T. colubriformis): 2 nM

O=C(Cn1ccnc1[N+](=O)[O-])NCc1ccccc1 [benznidazole]
parasites in the blood, compared with tretazicar 3.0 mg/kg (T cruzi [4]; 45 mg/kg (p.o.×5 daily)): equivalent effect
# of type of field (blood parasites per fields) (T cruzi [4]; 45 mg/kg p.o. x5, day 6 post infection): 0/20 and 3/20 (2×) and 4/20 and 1/20
# of type of field (blood parasites per fields) (T cruzi [4]; 45 mg/kg p.o. x5, day 13 post infection): 0/10

O.O.O.O.O.O.O.O.O.O=C([O-])[C@@H]1[O][Sb]2([O-])([O][Sb]34([OH])[O][C@H]([C@H](O)CO)[C@H]([O]3)[C@H](C(=O)[O-])[O]4)[O][C@H]([C@H](O)CO)[C@@H]1[O]2.[Na+].[Na+].[Na+] [Stibogluconate, sodium stibogluconate]
effect on parasite counts (L. donovani HU3; SCID mouse model, MTD 15 mg/kg×5 SC): little effect
